Data as given in article PMC11079024, “Identification of a family of species-selective complex I inhibitors as potential anthelmintics” (Nature Communications, 2024).
Several values for one entry are separate records, joined by “and”; a condition that tells them apart may be missing. Equal entries are not always repeated.

Assays:
[1] = biological target: H. sapiens (HEK293 cells) complex I (Homo sapiens, UniProt O75251+O75306+P03886); assay: In vitro complex I activity assay, HEK293 cell mitochondria; format: biochemical
[2] = system: C. elegans (N2) complex I (NADH:ubiquinone oxidoreductase); assay: biochemical; format: biochemical; details: wild-type C. elegans mitochondria
Summary of the method: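 Compounds were tested against freeze-thawed isolated mitochondria (0.2 mg/mL protein). NADH:decylubiquinone activity was monitored via DCIP absorbance at 600 nm, and the initial linear slope was normalised to solvent controls.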

Chain of H. sapiens (HEK293 cells) complex I (O75251 39-213): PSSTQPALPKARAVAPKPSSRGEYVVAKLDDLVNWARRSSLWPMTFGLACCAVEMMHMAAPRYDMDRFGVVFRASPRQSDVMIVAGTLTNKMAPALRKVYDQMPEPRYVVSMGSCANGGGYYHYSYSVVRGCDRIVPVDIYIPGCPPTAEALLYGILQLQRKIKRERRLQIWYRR
Chain of H. sapiens (HEK293 cells) complex I (P03886 whole entry): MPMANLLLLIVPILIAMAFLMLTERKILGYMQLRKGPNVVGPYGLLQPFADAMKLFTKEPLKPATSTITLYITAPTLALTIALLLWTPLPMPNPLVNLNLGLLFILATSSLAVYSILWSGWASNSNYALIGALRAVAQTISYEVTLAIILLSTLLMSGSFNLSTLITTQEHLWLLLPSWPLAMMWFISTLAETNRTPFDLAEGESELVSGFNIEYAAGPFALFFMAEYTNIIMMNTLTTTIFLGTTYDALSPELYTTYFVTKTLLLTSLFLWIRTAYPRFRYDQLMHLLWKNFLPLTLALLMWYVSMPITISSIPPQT
Chain of H. sapiens (HEK293 cells) complex I (O75306 34-463): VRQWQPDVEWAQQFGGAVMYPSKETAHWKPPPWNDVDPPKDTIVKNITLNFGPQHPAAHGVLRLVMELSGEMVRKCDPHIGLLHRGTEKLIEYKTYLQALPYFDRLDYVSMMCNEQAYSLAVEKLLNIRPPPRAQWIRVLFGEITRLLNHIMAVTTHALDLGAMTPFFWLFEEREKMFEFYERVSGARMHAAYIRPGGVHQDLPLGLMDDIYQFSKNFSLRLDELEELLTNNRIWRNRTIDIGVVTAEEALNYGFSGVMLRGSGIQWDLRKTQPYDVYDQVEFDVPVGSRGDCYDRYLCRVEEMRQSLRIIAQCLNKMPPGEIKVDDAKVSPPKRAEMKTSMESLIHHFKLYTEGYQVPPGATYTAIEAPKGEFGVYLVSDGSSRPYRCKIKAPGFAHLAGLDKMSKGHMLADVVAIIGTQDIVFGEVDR

CC(C)Cc1ccc(C(C)c2nc3ccccc3n2C)cc1 (centres unmarked) [NPD8790]
remaining activity at 0.06 µM ([1]; H. sapiens (HEK293 cells) mitochondria, 0.06 µM, Mean of replicates, read-out: in vitro complex I activity relative to solvent control): 90.2% | remaining activity at 0.13 µM ([1]; H. sapiens (HEK293 cells) mitochondria, 0.13 µM, Mean of replicates, read-out: in vitro complex I activity relative to solvent control): 78.3% | remaining activity at 0.313 µM ([1]; H. sapiens (HEK293 cells) mitochondria, 0.313 µM, Mean of replicates, read-out: in vitro complex I activity relative to solvent control): 76.7% | remaining activity at 0.625 µM ([1]; H. sapiens (HEK293 cells) mitochondria, 0.625 µM, Mean of replicates, read-out: in vitro complex I activity relative to solvent control): 129% | remaining activity at 1.5 µM ([1]; H. sapiens (HEK293 cells) mitochondria, 1.5 µM, Mean of replicates, read-out: in vitro complex I activity relative to solvent control): 95.7% | remaining activity at 3 µM ([1]; H. sapiens (HEK293 cells) mitochondria, 3 µM, Mean of replicates, read-out: in vitro complex I activity relative to solvent control): 102% | remaining activity at 15 µM ([1]; H. sapiens (HEK293 cells) mitochondria, 15 µM, Mean of replicates, read-out: in vitro complex I activity relative to solvent control): 85.1% | remaining activity at 37.5 µM ([1]; H. sapiens (HEK293 cells) mitochondria, 37.5 µM, Mean of replicates, read-out: in vitro complex I activity relative to solvent control): 52.8% | remaining activity at 75 µM ([1]; H. sapiens (HEK293 cells) mitochondria, 75 µM, Mean of replicates, read-out: in vitro complex I activity relative to solvent control): 61.5% | IC50 ([1]; mitochondria purified from HEK293 cells): > 75 µM

c1ccc2[nH]c(-c3cscn3)nc2c1 [Thiabendazole]
percent (%) in vitro complex I activity relative to solvent control ([2]; 0.125 µM, mean of replicates): 102.109% | percent (%) in vitro complex I activity relative to solvent control ([2]; 0.125 µM, single replicate): 99.976% and 103.068% and 101.883% and 103.510% | percent (%) in vitro complex I activity relative to solvent control ([2]; 0.313 µM, mean of replicates): 98.029% | percent (%) in vitro complex I activity relative to solvent control ([2]; 0.313 µM, single replicate): 96.436% and 97.421% and 98.637% and 99.622% | percent (%) in vitro complex I activity relative to solvent control ([2]; 0.625 µM, mean of replicates): 100.000% | percent (%) in vitro complex I activity relative to solvent control ([2]; 0.625 µM, single replicate): 100.000% | percent (%) in vitro complex I activity relative to solvent control ([2]; 1.5 µM, mean of replicates): 94.806% | percent (%) in vitro complex I activity relative to solvent control ([2]; 1.5 µM, single replicate): 99.025% and 95.797% and 89.075% and 95.328% | percent (%) in vitro complex I activity relative to solvent control ([2]; 3 µM, mean of replicates): 103.387% | percent (%) in vitro complex I activity relative to solvent control ([2]; 3 µM, single replicate): 101.704% and 108.843% and 104.258% and 98.742% | percent (%) in vitro complex I activity relative to solvent control ([2]; 15 µM, mean of replicates): 102.027% | percent (%) in vitro complex I activity relative to solvent control ([2]; 15 µM, single replicate): 100.357% and 106.821% and 103.640% and 97.291% | percent (%) in vitro complex I activity relative to solvent control ([2]; 37.5 µM, mean of replicates): 98.201% | percent (%) in vitro complex I activity relative to solvent control ([2]; 37.5 µM, single replicate): 99.533% and 98.195% and 100.518% and 94.556% | percent (%) in vitro complex I activity relative to solvent control ([2]; 75 µM, mean of replicates): 97.767% | percent (%) in vitro complex I activity relative to solvent control ([2]; 75 µM, single replicate): 97.247% and 98.620% and 98.499% and 96.702%
